According to ChEMBL document CHEMBL2380302, “Synthesis of 3-O-propargylated betulinic acid and its 1,2,3-triazoles as potential apoptotic agents” (Eur J Med Chem, 2013):

Columns and labels:
[1] = system: HCT-15; experiment: Cytotoxicity against human HCT15 cells at 10 uM after 48 hrs by SRB assay; type: functional; details: HCT-15, 48 h, read-out: GI
[2] = system: SF-295; experiment: Cytotoxicity against human SF295 cells at 30 uM after 48 hrs by SRB assay; type: functional; details: SF-295, 48 h, read-out: GI
[3] = system: HEp-2; experiment: Cytotoxicity against human Hep2 cells at 30 uM after 48 hrs by SRB assay; type: functional; details: HEp-2, 48 h, read-out: GI
[4] = system: A549; experiment: Cytotoxicity against human A549 cells at 50 uM after 48 hrs by SRB assay; type: functional; details: A549, 48 h, read-out: GI
[5] = system: MCF7; experiment: Cytotoxicity against human MCF7 cells at 30 uM after 48 hrs by SRB assay; type: functional; details: MCF7, 48 h, read-out: GI
[6] = system: A549; experiment: Cytotoxicity against human A549 cells after 48 hrs by SRB assay; type: functional, cell-based; details: A549, 48 h
[7] = system: DU-145; experiment: Cytotoxicity against human DU145 cells after 48 hrs by SRB assay; type: functional, cell-based; details: DU-145, 48 h
[8] = system: DU-145; experiment: Cytotoxicity against human DU145 cells at 50 uM after 48 hrs by SRB assay; type: functional; details: DU-145, 48 h, read-out: GI
[9] = system: HL-60; experiment: Cytotoxicity against human HL60 cells at 10 uM after 48 hrs by SRB assay; type: functional; details: HL-60, 48 h, read-out: GI
[10] = system: HL-60; experiment: Cytotoxicity against human HL60 cells at 30 uM after 48 hrs by SRB assay; type: functional; details: HL-60, 48 h, read-out: GI
[11] = system: HL-60; experiment: Cytotoxicity against human HL60 cells at 50 uM after 48 hrs by SRB assay; type: functional; details: HL-60, 48 h, read-out: GI
[12] = system: HCT-15; experiment: Cytotoxicity against human HCT15 cells at 50 uM after 48 hrs by SRB assay; type: functional; details: HCT-15, 48 h, read-out: GI
[13] = system: HCT-15; experiment: Cytotoxicity against human HCT15 cells at 30 uM after 48 hrs by SRB assay; type: functional; details: HCT-15, 48 h, read-out: GI
[14] = system: A549; experiment: Cytotoxicity against human A549 cells at 30 uM after 48 hrs by SRB assay; type: functional; details: A549, 48 h, read-out: GI
[15] = system: HL-60; experiment: Cytotoxicity against human HL60 cells after 48 hrs by SRB assay; type: functional, cell-based; details: HL-60, 48 h
[16] = system: THP-1; experiment: Cytotoxicity against human THP1 cells after 48 hrs by SRB assay; type: functional, cell-based; details: THP-1, 48 h
[17] = system: MCF7; experiment: Cytotoxicity against human MCF7 cells at 50 uM after 48 hrs by SRB assay; type: functional; details: MCF7, 48 h, read-out: GI
[18] = system: DU-145; experiment: Cytotoxicity against human DU145 cells at 10 uM after 48 hrs by SRB assay; type: functional; details: DU-145, 48 h, read-out: GI
[19] = system: SF-295; experiment: Cytotoxicity against human SF295 cells at 10 uM after 48 hrs by SRB assay; type: functional; details: SF-295, 48 h, read-out: GI
[20] = system: PC-3; experiment: Cytotoxicity against human PC3 cells at 50 uM after 48 hrs by SRB assay; type: functional; details: PC-3, 48 h, read-out: GI
[21] = system: A549; experiment: Cytotoxicity against human A549 cells at 10 uM after 48 hrs by SRB assay; type: functional; details: A549, 48 h, read-out: GI
[22] = system: MCF7; experiment: Cytotoxicity against human MCF7 cells at 10 uM after 48 hrs by SRB assay; type: functional; details: MCF7, 48 h, read-out: GI
[23] = system: MCF7; experiment: Cytotoxicity against human MCF7 cells after 48 hrs by SRB assay; type: functional, cell-based; details: MCF7, 48 h
[24] = system: DU-145; experiment: Cytotoxicity against human DU145 cells at 30 uM after 48 hrs by SRB assay; type: functional; details: DU-145, 48 h, read-out: GI
[25] = system: SF-295; experiment: Cytotoxicity against human SF295 cells at 50 uM after 48 hrs by SRB assay; type: functional; details: SF-295, 48 h, read-out: GI
[26] = system: THP-1; experiment: Cytotoxicity against human THP1 cells at 50 uM after 48 hrs by SRB assay; type: functional; details: THP-1, 48 h, read-out: GI
[27] = system: PC-3; experiment: Cytotoxicity against human PC3 cells at 30 uM after 48 hrs by SRB assay; type: functional; details: PC-3, 48 h, read-out: GI
[28] = system: PC-3; experiment: Cytotoxicity against human PC3 cells after 48 hrs by SRB assay; type: functional, cell-based; details: PC-3, 48 h
[29] = system: HEp-2; experiment: Cytotoxicity against human Hep2 cells at 50 uM after 48 hrs by SRB assay; type: functional; details: HEp-2, 48 h, read-out: GI
[30] = system: HEp-2; experiment: Cytotoxicity against human Hep2 cells after 48 hrs by SRB assay; type: functional, cell-based; details: HEp-2, 48 h
[31] = system: HCT-15; experiment: Cytotoxicity against human HCT15 cells after 48 hrs by SRB assay; type: functional, cell-based; details: HCT-15, 48 h
[32] = system: THP-1; experiment: Cytotoxicity against human THP1 cells at 30 uM after 48 hrs by SRB assay; type: functional; details: THP-1, 48 h, read-out: GI
[33] = system: SF-295; experiment: Cytotoxicity against human SF295 cells after 48 hrs by SRB assay; type: functional, cell-based; details: SF-295, 48 h
[34] = system: HEp-2; experiment: Cytotoxicity against human Hep2 cells at 10 uM after 48 hrs by SRB assay; type: functional; details: HEp-2, 48 h, read-out: GI
[35] = system: PC-3; experiment: Cytotoxicity against human PC3 cells at 10 uM after 48 hrs by SRB assay; type: functional; details: PC-3, 48 h, read-out: GI
[36] = system: THP-1; experiment: Cytotoxicity against human THP1 cells at 10 uM after 48 hrs by SRB assay; type: functional; details: THP-1, 48 h, read-out: GI

Compound	inhibition of growth at 10 µM [1]	inhibition of growth at 30 µM [2]	inhibition of growth at 30 µM [3]	inhibition of growth at 50 µM [4]	inhibition of growth at 30 µM [5]	IC50 [6]	IC50 [7]	inhibition of growth at 50 µM [8]	inhibition of growth at 10 µM [9]	inhibition of growth at 30 µM [10]	inhibition of growth at 50 µM [11]	inhibition of growth at 50 µM [12]	inhibition of growth at 30 µM [13]	inhibition of growth at 30 µM [14]	IC50 [15]	IC50 [16]	inhibition of growth at 50 µM [17]	inhibition of growth at 10 µM [18]	inhibition of growth at 10 µM [19]	inhibition of growth at 50 µM [20]	also measured
C=C(C)[C@@H]1CC[C@]2(C(=O)O)CC[C@]3(C)[C@H](CC[C@@H]4[C@@]5(C)CC[C@H](OCc6cn(-c7ccc(CC#N)cc7)nn6)C(C)(C)[C@@H]5CC[C@]43C)[C@@H]12	17%	81%	69%	60%	98%	25 µM	23 µM	68%	46%	96%	98%	56%	27%	57%	11 µM	12 µM	99%	30%	44%	64%	inhibition of growth at 10 µM [21]: 32%; inhibition of growth at 10 µM [22]: 42%; IC50 [23]: 12 µM; inhibition of growth at 30 µM [24]: 61%; inhibition of growth at 50 µM [25]: 83%; inhibition of growth at 50 µM [26]: 96%; inhibition of growth at 30 µM [27]: 48%; IC50 [28]: 32 µM; inhibition of growth at 50 µM [29]: 71%; IC50 [30]: 13 µM; IC50 [31]: 46 µM; inhibition of growth at 30 µM [32]: 95%; IC50 [33]: 13 µM; inhibition of growth at 10 µM [34]: 45%; inhibition of growth at 10 µM [35]: 42%; inhibition of growth at 10 µM [36]: 43%
C=C(C)[C@@H]1CC[C@]2(C(=O)O)CC[C@]3(C)[C@H](CC[C@@H]4[C@@]5(C)CC[C@H](O)C(C)(C)[C@@H]5CC[C@]43C)[C@@H]12 [BETULINIC ACID]	45%	88%	66%	74%	36%	31 µM	22 µM	84%	35%	73%	98%	94%	80%	48%	17 µM	20 µM	80%	12%	11%	94%	inhibition of growth at 10 µM [21]: 20%; inhibition of growth at 10 µM [22]: 7%; IC50 [23]: 37 µM; inhibition of growth at 30 µM [24]: 70%; inhibition of growth at 50 µM [25]: 99%; inhibition of growth at 50 µM [26]: 99%; inhibition of growth at 30 µM [27]: 29%; IC50 [28]: 37 µM; inhibition of growth at 50 µM [29]: 78%; IC50 [30]: 16 µM; IC50 [31]: 12 µM; inhibition of growth at 30 µM [32]: 69%; IC50 [33]: 22 µM; inhibition of growth at 10 µM [34]: 41%; inhibition of growth at 10 µM [35]: 8%; inhibition of growth at 10 µM [36]: 30%
